The values below come from article PMC5716070 (International Journal of Neuropsychopharmacology, 2017).

Data set [1] is described as follows: clinical. To be noted: human, plasma, po, 60 mg.
The test system of data set [2] is SERT. Particulars: cited from earlier work.
Data set [3] concerns NET. Particulars: cited from earlier work.
Where [4] appears, read: clinical dose, ref Nogami et al., 2013.

≈ marks a conversion by molar mass, not a printed value. Where “and” joins values, the source holds several entries; their conditions need not be identical. Equal values may be shown once. Read-outs that look alike come from different tables or passages of the source.

Consider `CNCC[C@H](Oc1cccc2ccccc12)c1cccs1` [duloxetine], for which the concentration at 6 h in data set [1] was 80.8 ng/mL. Also, the SERT occupancy in data set [2] (20 mg, ref Takano et al., 2006) was 71.3%; in data set [2] (60 mg, ref Takano et al., 2006) it was 81.8%; in data set [2] (single dose 40 mg, ref Takano et al., 2006), 80.6% and ~80%. The “EC50 for SERT occupancy” value was 0.00262 ± 0.00093 µg/mL in data set [2] (ref Abanades et al., 2011) and 0.0037 µg/mL in data set [2] (ref Takano et al., 2006).

With `CCN(CC)C(=O)C1(c2ccccc2)CC1CN` (stereo not shown) [milnacipran], in data set [3] (setting [4]), the NET occupancy entry is given as “low occupancy”. In addition, the SERT occupancy entry in data set [2] (setting [4]) is listed as “low occupancy”.

`CNCCC=C1c2ccccc2CCc2ccccc21` [nortriptyline]: the “EC50 (plasma drug concentration inducing 50% NET occupancy)” value in data set [3] (chronically administered 75–200 mg, patients with MDD, ref Takano et al., 2014) is 0.0798 µg/mL (≈ 0.303 µM); in data set [3] (single low dose (10–75 mg), healthy human volunteers, ref Sekine et al., 2010), 0.0598 µg/mL (≈ 0.227 µM).
